What was measured:
D(2) dopamine receptor = D(2) dopamine receptor (Homo sapiens, UniProt P14416); assay: biochemical
Description: Displacement of [3H]spiroperidol from cloned human dopamine receptor D2(long) expressed in rat C6 glioma cells

D(3) dopamine receptor = D(3) dopamine receptor (Homo sapiens, UniProt P35462); assay: biochemical
Description: Displacement of [3H]spiroperidol from cloned human dopamine receptor D3 expressed in CHO cells

[1] = Partition coefficient measured; format: physicochemical; conditions: octanol/water
[2] = Apparent permeability assessed by Caco-2 layer assay; format: ADME, cell-based; conditions: human
[3] = Distribution coefficient at pH 7.4; format: physicochemical; conditions: octanol/water

Chain of D(3) dopamine receptor (P35462 whole entry): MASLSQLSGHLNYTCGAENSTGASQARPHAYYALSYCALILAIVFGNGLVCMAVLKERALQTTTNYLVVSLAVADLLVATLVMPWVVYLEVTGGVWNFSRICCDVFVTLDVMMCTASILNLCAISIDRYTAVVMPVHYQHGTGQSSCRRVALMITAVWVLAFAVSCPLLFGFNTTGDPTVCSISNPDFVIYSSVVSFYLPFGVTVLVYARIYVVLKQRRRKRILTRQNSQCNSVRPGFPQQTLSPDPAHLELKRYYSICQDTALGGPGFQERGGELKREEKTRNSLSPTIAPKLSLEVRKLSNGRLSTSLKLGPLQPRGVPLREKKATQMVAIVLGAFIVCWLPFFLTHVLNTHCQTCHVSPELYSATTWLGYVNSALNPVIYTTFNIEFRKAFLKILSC
Chain of D(2) dopamine receptor (P14416 whole entry): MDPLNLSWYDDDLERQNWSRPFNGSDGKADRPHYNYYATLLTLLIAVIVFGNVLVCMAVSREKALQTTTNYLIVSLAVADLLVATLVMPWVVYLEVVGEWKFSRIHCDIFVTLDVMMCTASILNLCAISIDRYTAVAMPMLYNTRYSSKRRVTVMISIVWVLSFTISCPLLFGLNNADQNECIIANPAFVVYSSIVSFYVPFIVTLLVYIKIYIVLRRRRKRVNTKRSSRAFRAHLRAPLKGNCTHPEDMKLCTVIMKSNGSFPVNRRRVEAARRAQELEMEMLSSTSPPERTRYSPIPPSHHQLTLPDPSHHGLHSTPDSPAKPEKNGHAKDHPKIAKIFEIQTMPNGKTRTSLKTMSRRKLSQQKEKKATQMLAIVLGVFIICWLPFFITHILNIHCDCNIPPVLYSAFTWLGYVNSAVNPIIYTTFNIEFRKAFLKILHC

Structure (SMILES) | Ki (D(2) dopamine receptor) [nM] | Ki (D(3) dopamine receptor) [nM] | logP [1] | Papp [2] [×10⁻⁶ cm/s] | logD [3]
COc1ccc2onc(N3CCN(CCCCNC(=O)c4cccc(-c5ncccn5)c4)CC3)c2c1 | > 1000 | 1140 | – | – | –
COc1ccc2onc(N3CCN(CCCCNC(=O)c4cc5cccc(OC)c5o4)CC3)c2c1 | > 750 | 98 | – | – | –
COc1ccc2onc(N3CCN(CCCCNC(=O)c4ccc(-n5ccnc5)cc4)CC3)c2c1 | > 750 | 22.6 | 2.63 | 6.56 | 2.42
COc1ccc2onc(N3CCN(CCCCNC(=O)c4cccc(N5CCOCC5)c4)CC3)c2c1 | > 1000 | 1440 | – | – | –
COc1ccccc1N1CCN(CCCCNC(=O)c2ccc3nccnc3c2)CC1 | 179 | 77.9 | – | – | –
COc1ccc2onc(N3CCN(CCCCNC(=O)c4cc(-c5ccco5)n[nH]4)CC3)c2c1 | > 750 | 21.4 | 2.98 | 7.39 | 2.43
COc1ccccc1N1CCN(CCCCNC(=O)c2cc(-c3ccco3)[nH]n2)CC1 | 130 | 19.3 | – | – | –
COc1ccc2onc(N3CCN(CCCCNC(=O)c4ccc5c(c4)OCO5)CC3)c2c1 | > 750 | 118 | – | – | –
COc1cccc2cc(C(=O)NCCCCN3CCN(c4nc5ccccc5[nH]4)CC3)oc12 | > 750 | > 8500 | – | – | –
COc1cccc2cc(C(=O)NCCCCN3CCN(c4cccc5nccnc45)CC3)oc12 | 1250 | 262 | – | – | –
COc1ccccc1N1CCN(CCCCNC(=O)c2ccc3c(c2)OCO3)CC1 | 86.2 | 14.7 | – | – | –
COc1ccccc1N1CCN(CCCCNC(=O)c2cc3cccc(OC)c3o2)CC1 | 369 | 25.5 | – | – | –
COc1cccc2cc(C(=O)NCCCCN3CCN(c4[nH]nc5ccccc45)CC3)oc12 | 56.6 | 127 | – | – | –
COc1ccc2oc(N3CCN(CCCCNC(=O)c4cc5cccc(OC)c5o4)CC3)nc2c1 | > 750 | > 8500 | – | – | –
COc1ccccc1N1CCN(CCCCNC(=O)c2ccc(N3CCOCC3)cc2)CC1 | 141 | 23.9 | – | – | –
COc1ccc2onc(N3CCN(CCCCNC(=O)c4cccc(-c5noc(C)n5)c4)CC3)c2c1 | > 1000 | 1280 | – | – | –
COc1ccc2onc(N3CCN(CCCCNC(=O)c4cccc(-n5ccnc5)c4)CC3)c2c1 | > 1000 | 5540 | – | – | –

Continued, in another order:

Ki (D(2) dopamine receptor) [nM] | Ki (D(3) dopamine receptor) [nM] | Structure (SMILES) | logP [1] | Papp [2] [×10⁻⁶ cm/s] | logD [3]
146 | 60.1 | COc1ccccc1N1CCN(CCCCNC(=O)c2cc3ccccc3oc2=O)CC1 | – | – | –
> 750 | 38 | COc1ccc2onc(N3CCN(CCCCNC(=O)c4ccc(N5CCOCC5)cc4)CC3)c2c1 | 3.16 | 36.3 | 2.96
> 750 | 220 | COc1ccc2onc(N3CCN(CCCCNC(=O)c4ccc5nccnc5c4)CC3)c2c1 | – | – | –
– | 102 | COc1ccc2ccnc(N3CCN(CCCCNC(=O)c4cc5cccc(OC)c5o4)CC3)c2c1 | – | – | –
27.2 | 4.79 | COc1ccccc1N1CCN(CCCCNC(=O)c2ccc(-n3ccnc3)cc2)CC1 | – | – | –
> 750 | > 2700 | COc1ccc2onc(N3CCN(CCCCNC(=O)c4cc5ccccc5oc4=O)CC3)c2c1 | – | – | –
> 750 | 85 | COc1ccc2onc(N3CCN(CCCCNC(=O)c4ccc5nonc5c4)CC3)c2c1 | – | – | –
> 1000 | 58.5 | COc1ccccc1N1CCN(CCCCNC(=O)c2ccc3nonc3c2)CC1 | – | – | –

Source: ChEMBL document CHEMBL1148573, “Design, synthesis, and binding affinities of potential positron emission tomography (PET) ligands for visualization of brain dopamine D3 receptors” (J Med Chem, 2006)
